# Assay results as given in article PMC8586358 (Nature Communications, 2021).
# Several values for one entry are separate records, joined by “and”; a condition that tells them apart may be missing. Equal entries are not always repeated. Where two headings read alike, the source gives them in different places.
# Key:
# D2R = target: T1, D2R (Homo sapiens, UniProt P14416); assay: Fluo-cariprazine PharmacoSTORM signal in D2R-expressing cells (Supplementary Fig. S6d); type: binding
# T1 construct: expressed in transfected cells; host or cells: HEK 293
# Description: Generation of N-terminally EGFP-tagged mouse CB1R was previously described[8]. The coding sequence of monoacylglycerol lipase (MAGL) was amplified with mMGL_fw and mMGL_rev primers using a mouse brain cDNA library as a template. The PCR product was digested with HindIII and BamHI enzymes and cloned into pcDNA3.1 backbone. GFP-MGL was constructed by subcloning the open reading frame of MAGL into pAcGFP1-C1 vector following HindIII/BamHI digestion. […] The amplified DNA was inserted into pcDNA3.1 vector between the BamHI and XhoI restriction sites. TMEM35 in pCMV6 vector was from Origene (RC209790). The pGloSensor™-22F cAMP plasmid was from Promega. The plasmid encoding CB1R was generated by inserting the coding sequence of human CB1R into pCAGIG vector. The plasmids encoding Gi1 subunits (αi1, β1, and γ2) were from the cDNA Resource Center. We created Gαi1–Rluc8 using overlap exchange PCR, Rluc8 was inserted into Gαi1 between residue 91 and 92 with SGGGGS linkers similar to a previous design[77]. Venus–β1 was created by replacing YFP with Venus in YFP–β1 using restriction digestion, YFP–β1 plasmid construct was described previously[78].
# For microscopic experiments, cells were seeded one day before transfection on poly-D-lysine-coated coverslips in 24-well culture plates. Coverslips were cleaned with extensive 2 M NaOH and 70% ethanol washing steps prior to use. Transient transfection was done with Lipofectamine 2000 (Thermo Fischer) according to the manufacturer’s protocol. After transfection (20–28 h), pharmacological treatment was applied and then combined with immunolabeling. The full procedure was optimized for each investigated protein. In the case of D3R-, CB1R-, and α7-nAchR-expressing cells, all labeling and washing steps were executed in Hanks’ balanced salt solution (Sigma-Aldrich H6648) on live cells, and in Dulbecco’s Phosphate Buffered Saline (Corning, 21-031-CV) on fixed cells. The labeling steps with antibodies, ligands, or fixatives were followed by three washing steps. […] Unless otherwise stated, we used CF568-labeled secondary antibodies.
# The HA-D3R-expressing cells were live-stained with anti-HA primary and secondary antibodies for 10 min at room temperature. […] Cells were fixed in 4% PFA for 10 min before imaging. For Supplementary Fig. S5g, Cy5-labeled secondary antibody was applied, without fluorescent ligand treatment. For fluo-cannabinoid binding experiments, all steps were executed at room temperature. […] MAGL pharmacological labeling was performed in culture medium in a 5% CO2 atmosphere at 37 °C. […] Before immunolabeling, cells were washed with 100% methanol three times for 10 min and were blocked with 5% normal donkey serum (NDS) in 0.1 M phosphate buffer (PB; pH 7.4), for 30 min. Anti-GFP immunolabeling was done in 0.1 M PB and immunostained cells were postfixed with 4% PFA before imaging. In the case of α7-nAChR experiments, its chaperon protein, NACHO (TMEM35) was co-transfected in a 10 to 1 receptor:chaperon ratio in order to enhance cell-surface expression of the ion channel[79]. MLA pretreatment and Alexa647-bungarotoxin labeling were done at 4 °C for 20 min. After pharmacological labeling, the cells were fixed with 4% PFA, and subsequent anti-HA-immunolabeling was done at room temperature. Immunolabeling was followed by post-fixation.
# To analyze the number of localization points (LPs) in membranes of cultured cells, we merged the dSTORM images obtained from pharmacolabeling (PharmacoSTORM) and immunolabeling (ImmunoSTORM). […]
# CB1R [1] = target: T2, CB1R (Homo sapiens, UniProt P21554); assay: Ligand-binding assay, affinity of fluo-cannabinoid for CB1R (Supplementary Table S1)
# CB1R [2] = target: T2, CB1R; type: cell-based; set-up: expressed in transfected cells; host or cells: HEK 293T; details: for cAMP reduction (%): single experiments
# α7-nAchR-HA = α7-nAchR-HA (Homo sapiens, UniProt P36544)
# [3] = target: T3, D3R in the Islands of Calleja (Mus musculus, UniProt P30728); assay: In vivo competitive drug-binding measurement (cariprazine i.p., then Fluo-CAR labeling of acute slices); details: cariprazine 1 mg/kg i.p., 2 h
# T3 construct: from tissue; host or cells: mouse brain (Islands of Calleja, ventral and dorsal striatum); acute slices or fresh-frozen cryosections
# Method: Male 26–33-days-old C57BL/6 mice were intraperitoneally injected with 1 mg/kg cariprazine or an equal volume of vehicle (0.9% saline + 1% Tween80). After injection (2 h), pharmacological tissue labeling was carried out similarly to the previous experiments. […] Slices were rinsed three times with ACSF and fixed overnight with 4% PFA. Slices were either processed for correlated confocal and STORM imaging or for conventional confocal imaging.
# MAGL = target: T4, MAGL (Homo sapiens, UniProt Q99685); assay: 2-Arachidonoylglycerol-based fluorescence assay for DH-463; type: biochemical
# T4 sequence (Q99685 1-303): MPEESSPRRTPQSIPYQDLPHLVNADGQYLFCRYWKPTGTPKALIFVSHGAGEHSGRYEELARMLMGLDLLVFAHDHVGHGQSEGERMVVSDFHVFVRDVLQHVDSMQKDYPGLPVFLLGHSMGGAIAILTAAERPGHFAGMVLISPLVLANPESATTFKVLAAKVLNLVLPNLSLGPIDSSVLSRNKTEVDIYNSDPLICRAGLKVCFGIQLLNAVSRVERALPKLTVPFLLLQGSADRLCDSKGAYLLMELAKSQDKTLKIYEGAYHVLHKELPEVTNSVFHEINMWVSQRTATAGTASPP
# Method: The natural substrate assays were performed as reported previously[80],[81]. All chemicals and reagents were purchased from Sigma-Aldrich, unless mentioned otherwise. […] 2-Arachidonoylglycerol was from Cayman Chemical. All measurements were performed in n = 4 or n = 8 for controls, with Z’ ≥ 0.6.
# D3R = target: T5, D3R (Homo sapiens, UniProt P35462); assay: BRET-based Gi1-activation assay in HEK 293T cells; type: cell-based
# T5 construct: expressed in transfected cells; host or cells: HEK 293 (microscopy), HEK 293T (BRET)
# Description: The next day we replaced the medium with modified Kreb’s Ringer medium and performed BRET experiments using a Thermo Scientific Varioskan Flash multimode plate reader similarly as previously described. […] To calculate the BRET response, we first subtracted the BRET ratio of cells coexpressing the untagged β1 subunit from the BRET ratio of cells coexpressing Venus-β1. Then we corrected the baseline BRET ratio and subtracted the BRET ratio of vehicle-treated cells from the average BRET ratio of stimulus-treated cells. All BRET measurements were performed in triplicates.
# [4] = log(agonist) vs. response, variable slope
# T5 sequence (P35462 whole entry): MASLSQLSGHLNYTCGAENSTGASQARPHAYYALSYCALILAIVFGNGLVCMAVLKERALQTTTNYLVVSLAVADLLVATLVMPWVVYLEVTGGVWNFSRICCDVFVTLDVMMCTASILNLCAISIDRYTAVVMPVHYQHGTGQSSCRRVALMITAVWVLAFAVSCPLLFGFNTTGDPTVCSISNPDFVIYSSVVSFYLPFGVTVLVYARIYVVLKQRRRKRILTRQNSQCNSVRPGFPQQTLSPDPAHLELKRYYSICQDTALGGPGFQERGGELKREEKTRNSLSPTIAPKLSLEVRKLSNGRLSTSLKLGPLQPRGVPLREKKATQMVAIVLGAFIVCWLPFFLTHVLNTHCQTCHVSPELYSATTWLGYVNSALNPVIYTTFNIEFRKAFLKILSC
# T3 sequence (P30728 whole entry): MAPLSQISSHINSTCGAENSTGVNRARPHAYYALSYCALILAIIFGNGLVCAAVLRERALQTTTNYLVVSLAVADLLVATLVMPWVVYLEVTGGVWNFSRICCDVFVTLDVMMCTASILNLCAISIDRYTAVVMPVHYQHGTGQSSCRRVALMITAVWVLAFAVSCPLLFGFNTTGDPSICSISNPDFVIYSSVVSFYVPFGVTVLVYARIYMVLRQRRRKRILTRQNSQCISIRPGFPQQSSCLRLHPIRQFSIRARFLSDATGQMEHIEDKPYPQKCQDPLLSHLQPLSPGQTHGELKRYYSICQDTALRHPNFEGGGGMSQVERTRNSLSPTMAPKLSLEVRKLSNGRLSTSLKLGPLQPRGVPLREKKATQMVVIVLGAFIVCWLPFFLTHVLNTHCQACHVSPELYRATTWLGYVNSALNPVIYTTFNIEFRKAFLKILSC
# T2 sequence (P21554 whole entry): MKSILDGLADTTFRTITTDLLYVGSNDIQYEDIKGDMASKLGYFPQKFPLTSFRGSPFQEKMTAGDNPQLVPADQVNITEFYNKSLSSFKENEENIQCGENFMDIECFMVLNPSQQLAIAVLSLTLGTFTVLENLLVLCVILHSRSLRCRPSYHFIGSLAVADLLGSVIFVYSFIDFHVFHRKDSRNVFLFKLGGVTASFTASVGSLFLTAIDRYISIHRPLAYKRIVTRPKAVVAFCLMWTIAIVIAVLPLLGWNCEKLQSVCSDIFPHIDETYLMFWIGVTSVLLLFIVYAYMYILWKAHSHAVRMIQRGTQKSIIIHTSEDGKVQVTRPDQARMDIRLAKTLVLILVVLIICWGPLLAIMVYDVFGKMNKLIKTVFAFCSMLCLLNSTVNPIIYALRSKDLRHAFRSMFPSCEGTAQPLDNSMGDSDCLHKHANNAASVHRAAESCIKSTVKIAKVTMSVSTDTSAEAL
# T1 sequence (P14416 whole entry): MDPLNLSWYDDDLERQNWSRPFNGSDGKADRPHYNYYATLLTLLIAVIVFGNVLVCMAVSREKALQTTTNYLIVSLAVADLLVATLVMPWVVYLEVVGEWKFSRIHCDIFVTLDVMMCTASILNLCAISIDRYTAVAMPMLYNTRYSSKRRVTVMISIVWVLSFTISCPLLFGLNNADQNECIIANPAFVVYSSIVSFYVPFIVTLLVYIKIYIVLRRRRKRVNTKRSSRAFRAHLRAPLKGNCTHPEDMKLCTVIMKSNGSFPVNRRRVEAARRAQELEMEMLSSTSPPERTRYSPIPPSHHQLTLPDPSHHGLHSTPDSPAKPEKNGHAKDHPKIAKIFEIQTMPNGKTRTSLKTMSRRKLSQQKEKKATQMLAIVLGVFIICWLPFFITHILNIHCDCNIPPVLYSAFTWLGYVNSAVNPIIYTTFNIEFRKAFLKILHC
# Chain of α7-nAchR-HA (P36544 23-502): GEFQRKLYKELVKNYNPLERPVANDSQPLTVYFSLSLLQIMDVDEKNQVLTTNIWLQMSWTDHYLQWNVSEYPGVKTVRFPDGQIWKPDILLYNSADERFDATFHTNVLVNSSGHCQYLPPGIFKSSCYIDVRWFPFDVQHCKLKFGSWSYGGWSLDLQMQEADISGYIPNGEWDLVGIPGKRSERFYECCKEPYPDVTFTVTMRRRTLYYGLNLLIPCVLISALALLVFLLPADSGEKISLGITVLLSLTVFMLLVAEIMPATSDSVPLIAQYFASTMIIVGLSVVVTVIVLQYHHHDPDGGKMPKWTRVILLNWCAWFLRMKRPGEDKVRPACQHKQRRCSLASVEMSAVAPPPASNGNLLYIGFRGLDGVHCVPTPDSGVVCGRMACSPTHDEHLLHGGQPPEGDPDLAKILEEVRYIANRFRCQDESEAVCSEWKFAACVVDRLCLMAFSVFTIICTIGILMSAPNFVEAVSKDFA
smiles,measurement,setting,value
CN(CCCNC(=O)CCCCC[N+]1=C(/C=C/C=C/C=C2/N(C)c3ccc(S(=O)(=O)O)cc3C2(C)C)C(C)(C)c2cc(S(=O)(=O)[O-])ccc21)C(=O)N[C@H]1CC[C@@H](CCN2CCN(c3cccc(Cl)c3Cl)CC2)CC1 [fluo-cariprazine],"PharmacoSTORM LPs / ImmunoSTORM LPs (% of D3R), actual mean",D2R,"7,203%"
same,PharmacoSTORM LPs / ImmunoSTORM LPs (% of D3R),D2R; single experiments,3.466% and 8.432% and 4.243% and 12.6707%
CCCCCCC(C)(C)c1cc(O)c2c(c1)OC(C)(C)c1ccc(CNCCCCCCNC(=O)CCCCC[N+]3=C(/C=C/C=C/C=C4/N(C)c5ccc(S(=O)(=O)O)cc5C4(C)C)C(C)(C)c4cc(S(=O)(=O)[O-])ccc43)cc1-2 [fluo-cannabinoid],Ki,CB1R [1],3.5 nM
same,HILLSLOPE (best-fit),CB1R [2],"0,9981"
same,"Span (best-fit), cAMP reduction",CB1R [2],"37,53%"
same,cAMP reduction (%),CB1R [2]; 10-6.5 M,31.4472% and 32.8666% and 33.3129% and 25.9155% and 23.0595%
same,cAMP reduction (%),CB1R [2]; 10-8.5 M,-1.6297% and 1.0916% and -1.1492% and -4.3119% and 0.7084%
same,cAMP reduction (%),CB1R [2]; 10^-6 M,35.6911% and 25.5164% and 35.8634% and 19.8904% and 28.6228%
same,cAMP reduction (%),CB1R [2]; 10^-9 M,0%
same,LOGEC50 (best-fit),CB1R [2]; concentration in M,"-7,482"
same,Emax,CB1R [2]; in vitro cAMP assay on CB1R,36.1%
same,"BOTTOM (best-fit), cAMP reduction",CB1R [2]; [4],"-1,444%"
same,"TOP (best-fit), cAMP reduction",CB1R [2]; [4],"36,09%"
same,EC50,CB1R [2]; read-out: EC50 (best-fit),33 nM
CCN1C[C@]2(COC(=O)c3ccccc3N3C(=O)C[C@H](C)C3=O)CC[C@H](OC)[C@@]34[C@@H]5C[C@H]6[C@H](OC)[C@@H]5[C@](O)(C[C@@H]6OC)[C@@](O)([C@@H](OC)[C@H]23)[C@@H]14 [methyllycaconitine],effect on PharmacoSTORM signal of Alexa647-α-bungarotoxin,α7-nAchR-HA,fully prevented
CN(C)C(=O)N[C@H]1CC[C@H](CCN2CCN(c3cccc(Cl)c3Cl)CC2)CC1 [cariprazine],effect on fluo-cariprazine signal in the hilar subregion of the Islands of Calleja,[3],completely eliminated
same,Fluo-CAR STORM density (LPs/μm2),"[3]; slices with 30 nM Fluo-CAR, Islands of Calleja, per animal",0.8583 LPs/μm2 and 0.5531 LPs/μm2 and 1.2207 LPs/μm2 and 0.9766 LPs/μm2
CN1/C(=C/C=C/C=C/C2=[N+](CCCCCC(=O)NCc3cn(CCOc4ccc(C(c5ccc(Cl)cc5)N5CCN(C(=O)OC(C(F)(F)F)C(F)(F)F)CC5)cc4)nn3)c3ccccc3C2(C)C)C(C)(C)c2ccccc21.[Cl-] (centres unmarked) [DH-463],HILLSLOPE (best-fit),MAGL,"-0,7836"
same,"MAGL activity (%), mean",MAGL; 10^-5 M,5.023%
same,"MAGL activity (%), mean",MAGL; 10^-6 M,10.8061%
same,"MAGL activity (%), mean",MAGL; 10^-7 M,27.8239%
same,"MAGL activity (%), mean",MAGL; 10^-8 M,51.3279%
same,"MAGL activity (%), mean",MAGL; 10^-9 M,91.5194%
same,"MAGL activity (%), mean",MAGL; 10^-10 M,105.132%
same,LOGIC50 (best-fit),MAGL; concentration in M,"-7,938"
same,"BOTTOM (best-fit), MAGL activity","MAGL; log(inhibitor) vs. response, variable slope","7,823%"
same,IC50,MAGL; read-out: IC50 (best-fit),11.5 nM
CCCN1CCO[C@@H]2c3cc(O)ccc3OC[C@H]21 [PD128907],"Gi1-BRET response (%, norm. to pretreatment)","D3R; PD 128907 10-6.5 M, vehicle pretreatment",106.065% and 96.3019% and 97.7639%
same,"Gi1-BRET response (%, norm. to pretreatment)","D3R; PD 128907 10-7.5 M, vehicle pretreatment",94.4647% and 90.0327% and 83.0176%
same,"Gi1-BRET response (%, norm. to pretreatment)","D3R; PD 128907 10-8.5 M, vehicle pretreatment",62.6732% and 52.2099% and 77.0199%
same,"Gi1-BRET response (%, norm. to pretreatment)","D3R; PD 128907 10-9.5 M, vehicle pretreatment",23.5448% and 22.9857% and 15.0109%
same,"Gi1-BRET response (%, norm. to pretreatment)","D3R; PD 128907 10^-6 M, vehicle pretreatment",100%
same,"Gi1-BRET response (%, norm. to pretreatment)","D3R; PD 128907 10^-7 M, vehicle pretreatment",92.6877% and 91.1582% and 95.9579%
same,"Gi1-BRET response (%, norm. to pretreatment)","D3R; PD 128907 10^-8 M, vehicle pretreatment",89.6043% and 74.7508% and 92.6073%
same,"Gi1-BRET response (%, norm. to pretreatment)","D3R; PD 128907 10^-9 M, vehicle pretreatment",56.1354% and 47.8674% and 57.7701%
same,"TOP (best-fit), Gi1-BRET response","D3R; PD 128907, vehicle pretreatment","95,84%"
same,LOGEC50 (best-fit),"D3R; PD 128907, vehicle pretreatment, concentration in M","-8,980"
same,EC50,"D3R; vehicle pretreatment, n = 3, read-out: EC50 of PD128907",1.05 nM
